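96-well plates; 48 h exposure; 5 concentrations. Endpoints by linear interpolation between flanking doses. Not reached: highest tested concentration assigned. GI50 marks 50% less growth.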 Calls of active or inactive are those of the source. No stated cut-off is given here; in the data, active = GI50 up to about 1.1 µM and inactive = higher.
What was measured:
Experiment in all cases: NCI tumour cell line growth inhibition, 48 h
HT-29 = system: HT-29
K562 = system: K562
RXF 393 = system: RXF 393
IGROV-1 = system: IGROV-1
A498 = system: A498
CCRF-CEM = system: CCRF-CEM
HCC 2998 = system: HCC 2998
UO-31 = system: UO-31
SF-539 = system: SF-539
NCI-H226 = system: NCI-H226
T47D = system: T47D
NCI-H460 = system: NCI-H460
M14 = system: M14
HCT-116 = system: HCT-116
OVCAR-5 = system: OVCAR-5
EKVX = system: EKVX
Malme-3M = system: Malme-3M
SNB-19 = system: SNB-19
BT-549 = system: BT-549
LOX IMVI = system: LOX IMVI
UACC-62 = system: UACC-62
HL-60 = system: HL-60
KM12 = system: KM12
Hs-578T = system: Hs-578T
COLO 205 = system: COLO 205
NCI/ADR-RES = system: NCI/ADR-RES
HOP-92 = system: HOP-92
SK-MEL-28 = system: SK-MEL-28
RPMI-8226 = system: RPMI-8226
A549 = system: A549
SF-295 = system: SF-295
SNB-75 = system: SNB-75
PC-3 = system: PC-3
CAKI-1 = system: CAKI-1
OVCAR-4 = system: OVCAR-4
ACHN = system: ACHN
HCT-15 = system: HCT-15
TK-10 = system: TK-10
SK-MEL-5 = system: SK-MEL-5
NCI-H522 = system: NCI-H522
MOLT-4 = system: MOLT-4
SW-620 = system: SW-620
786-0 = system: 786-0
SF-268 = system: SF-268
SR = system: SR
NCI-H23 = system: NCI-H23
DU-145 = system: DU-145
MDA-MB-435 = system: MDA-MB-435
MCF7 = system: MCF7
OVCAR-3 = system: OVCAR-3
OVCAR-8 = system: OVCAR-8
SN12C = system: SN12C
UACC-257 = system: UACC-257
U-251 = system: U-251
HOP-62 = system: HOP-62

`COC(=O)c1ccc(C)cc1/C=C1\Cc2ccc(C)cc2C1=O` was tested, and the GI50 (HT-29) was 4.73 µM (inactive), the GI50 (K562) was 6.58 µM (inactive) and the GI50 (RXF 393) was 14.7 µM (inactive). For the same compound, the GI50 (IGROV-1) was 10.4 µM (inactive), the GI50 (A498) was 19.1 µM (inactive) and the GI50 (CCRF-CEM) was 18.2 µM (inactive). The GI50 (HCC 2998) was 19.7 µM (inactive), the GI50 (UO-31) was 11 µM (inactive) and the GI50 (SF-539) was 12.4 µM (inactive). For the same compound, the GI50 (NCI-H226) was 10.1 µM (inactive), the GI50 (T47D) was 17.1 µM (inactive) and the GI50 (NCI-H460) was 40.2 µM (inactive). The GI50 (M14) was 16.1 µM (inactive), the GI50 (HCT-116) was 11.1 µM (inactive) and the GI50 (OVCAR-5) was 15.9 µM (inactive). For the same compound, the GI50 (EKVX) was 26.2 µM (inactive), the GI50 (Malme-3M) was 10.2 µM (inactive) and the GI50 (SNB-19) was 17.2 µM (inactive). The GI50 (BT-549) was 4.91 µM (inactive), the GI50 (LOX IMVI) was 12.9 µM (inactive) and the GI50 (UACC-62) was 11.4 µM (inactive). For the same compound, the GI50 (HL-60) was 4.78 µM (inactive), the GI50 (KM12) was 11.6 µM (inactive) and the GI50 (Hs-578T) was 23.1 µM (inactive). For the same compound, the GI50 (COLO 205) was 8.63 µM (inactive), the GI50 (NCI/ADR-RES) was 29.4 µM (inactive) and the GI50 (HOP-92) was 15.5 µM (inactive). For the same compound, the GI50 (SK-MEL-28) was 16.6 µM (inactive), the GI50 (RPMI-8226) was 11.8 µM (inactive) and the GI50 (A549) was 26.9 µM (inactive). For the same compound, the GI50 (SF-295) was 15.3 µM (inactive), the GI50 (SNB-75) was 5.64 µM (inactive) and the GI50 (PC-3) was 17.9 µM (inactive). For the same compound, the GI50 (CAKI-1) was 26.3 µM (inactive), the GI50 (OVCAR-4) was 14.4 µM (inactive) and the GI50 (ACHN) was 30.8 µM (inactive). For the same compound, the GI50 (HCT-15) was 13 µM, the GI50 (TK-10) was 21.1 µM (inactive) and the GI50 (SK-MEL-5) was 13.9 µM (inactive). The GI50 (NCI-H522) was 17.1 µM (inactive), the GI50 (MOLT-4) was 13.2 µM (inactive) and the GI50 (SW-620) was 19.5 µM (inactive). For the same compound, the GI50 (786-0) was 16.9 µM (inactive), the GI50 (SF-268) was 14.2 µM (inactive) and the GI50 (SR) was 3.9 µM (inactive). The GI50 (NCI-H23) was 23.9 µM (inactive), the GI50 (DU-145) was 16.7 µM (inactive) and the GI50 (MDA-MB-435) was 4.28 µM (inactive). The GI50 (MCF7) was 11.2 µM (inactive), the GI50 (OVCAR-3) was 6.52 µM (inactive) and the GI50 (OVCAR-8) was 21.2 µM (inactive). The GI50 (SN12C) was 16.7 µM (inactive), the GI50 (UACC-257) was 22.6 µM (inactive) and the GI50 (U-251) was 12.6 µM (inactive). The GI50 (HOP-62) was 15.5 µM (inactive).
